Consider seven molecules from BindingDB's records for doi:10.1111/cbdd.12198 (Shanghai Institute of Pharmaceutical Industry, 2014).

In test [1] the target is Serine/threonine-protein kinase B-raf [V600E] (Homo sapiens, UniProt P15056, V600E). Nature of the test: Biochemical Assay. The following applies: pH 7.5; 25 °C. As to the method:
(§1) Compounds were prepared in DMSO at 10mmol/L and serially diluted in a 96-well plate as the source plate. The intermediate plate consists of 4µL from the source plate mixed with 96µL of 1× kinase buffer (50mmol/L HEPES, pH 7.5; 10mmol/L MgCl2; 1mmol/L EGTA; 0.01% Brij-35). Of 2.5µL was transferred to a 384-well assay plate in duplicates. To the assay plate, 5µL of BRAF 7nmol/L or BRAF V600E 0.7nmol/L, 2.5µL of substrate solution containing Fluorescein-MAP2K1 0.8µmol/L and ATP (for BRAF 2µmol/L, for BRAF V600E 6µmol/L) were added and the assay plate was incubated with the compounds for 1 h at room temperature. The reaction was stopped with the addition of 10µL of detection solution (antibody 4nmol/L and EDTA 20mmol/L in antibody dilution buffer) to each well of the assay plate.

In test [2] the target is Serine/threonine-protein kinase B-raf (Homo sapiens, UniProt P15056). Nature of the test: Biochemical Assay. The following applies: pH 7.5; 25 °C. As to the method: as §1
Sequence of Serine/threonine-protein kinase B-raf (P15056 whole entry): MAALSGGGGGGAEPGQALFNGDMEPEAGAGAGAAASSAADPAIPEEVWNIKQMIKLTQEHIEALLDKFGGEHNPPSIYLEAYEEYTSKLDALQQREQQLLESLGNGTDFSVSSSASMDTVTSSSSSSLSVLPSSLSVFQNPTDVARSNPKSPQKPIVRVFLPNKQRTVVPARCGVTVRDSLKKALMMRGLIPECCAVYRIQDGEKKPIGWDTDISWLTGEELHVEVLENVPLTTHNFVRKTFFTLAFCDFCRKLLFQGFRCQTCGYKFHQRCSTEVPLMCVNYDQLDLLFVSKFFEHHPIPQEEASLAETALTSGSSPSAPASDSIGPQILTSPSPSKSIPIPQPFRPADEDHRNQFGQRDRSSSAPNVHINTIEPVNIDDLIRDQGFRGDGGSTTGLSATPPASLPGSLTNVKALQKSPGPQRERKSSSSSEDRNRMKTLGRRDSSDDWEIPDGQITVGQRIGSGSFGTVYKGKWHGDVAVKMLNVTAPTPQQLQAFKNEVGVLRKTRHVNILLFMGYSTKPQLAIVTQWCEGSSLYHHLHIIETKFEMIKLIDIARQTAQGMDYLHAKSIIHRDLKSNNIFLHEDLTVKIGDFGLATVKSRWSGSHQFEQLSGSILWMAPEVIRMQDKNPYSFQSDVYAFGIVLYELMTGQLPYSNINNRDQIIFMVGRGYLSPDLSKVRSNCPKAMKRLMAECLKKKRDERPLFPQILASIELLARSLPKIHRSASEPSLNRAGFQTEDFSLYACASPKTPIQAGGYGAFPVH

pIC50: −log10 of the molar value.

Sequence of Serine/threonine-protein kinase B-raf [V600E] (P15056 2-766 V600E limits assumed): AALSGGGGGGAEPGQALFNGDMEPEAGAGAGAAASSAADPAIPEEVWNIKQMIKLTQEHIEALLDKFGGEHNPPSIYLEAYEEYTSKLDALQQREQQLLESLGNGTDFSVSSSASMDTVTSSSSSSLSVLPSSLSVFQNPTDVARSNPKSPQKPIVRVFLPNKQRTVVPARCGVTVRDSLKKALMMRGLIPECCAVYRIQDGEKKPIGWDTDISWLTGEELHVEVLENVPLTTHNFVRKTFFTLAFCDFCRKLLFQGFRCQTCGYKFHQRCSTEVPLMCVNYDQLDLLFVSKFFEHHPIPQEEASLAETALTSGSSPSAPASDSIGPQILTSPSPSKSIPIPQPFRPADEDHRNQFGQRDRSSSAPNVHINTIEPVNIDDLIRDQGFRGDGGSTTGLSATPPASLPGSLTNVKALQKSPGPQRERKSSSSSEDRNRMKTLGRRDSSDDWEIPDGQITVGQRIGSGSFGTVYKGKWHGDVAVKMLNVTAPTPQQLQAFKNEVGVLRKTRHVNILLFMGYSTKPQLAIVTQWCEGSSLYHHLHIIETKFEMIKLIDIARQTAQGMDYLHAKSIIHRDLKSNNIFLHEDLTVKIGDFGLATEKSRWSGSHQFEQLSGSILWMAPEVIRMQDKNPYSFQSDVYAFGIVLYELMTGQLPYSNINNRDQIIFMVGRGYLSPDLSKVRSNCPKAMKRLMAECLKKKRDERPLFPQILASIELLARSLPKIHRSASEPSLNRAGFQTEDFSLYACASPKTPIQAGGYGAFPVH

Usually pIC50 stands for the negative decadic logarithm of the IC50, by convention in mol/L. Low values mean a large IC50, high ones a small IC50. With `Cc1nc(N2CCOCC2)cc(N(C)c2cccc(NC(=O)Nc3ccc(Cl)c(C(F)(F)F)c3)c2)n1` [1-(4-Chloro-3-(trifluoromethyl)phenyl)-3-(3-(methyl (2-methyl-6-morpholinopyrimidin-4-yl)amino)phenyl)urea (Compound 6)], the pIC50 in test [1] and in test [2] was 5.86 each time.
Consider `Cc1nc(Nc2cccc(NC(=O)Nc3ccc(Cl)c(C(F)(F)F)c3)c2)cc(N2CCN(C)CC2)n1` [1-(4-Chloro-3-(trifluoromethyl)phenyl)-3-(3-(2-methyl-6-(4-methylpiperazin-1-yl)pyrimidin-4-ylamino)phenyl)urea (Compound 4)], for which the values for the negative logarithm of the IC50 (pIC50) in test [1] and in test [2] were 5.14 and below 5.00, respectively.
The corresponding values for `Cc1nc(Nc2cccc(NC(=O)Nc3ccc(F)c(Cl)c3)c2)cc(N2CCOCC2)n1` [1-(3-Chloro-4-fluorophenyl)-3-(3-(2-methyl-6-morpholinopyrimidin-4-ylamino)phenyl)urea (Compound 2)] are 6.20 and 5.97.
For `Cc1nc(Cl)cc(Nc2cccc(NC(=O)Nc3ccc(Cl)c(C(F)(F)F)c3)c2)n1` [1-(3-(6-Chloro-2-methylpyrimidin-4-ylamino)phenyl)-3-(4-chloro-3-(trifluoromethyl)phenyl)urea (Compound 1)], in that order: 6.53 and 6.14.
Consider `Cc1nc(N2CCN(C)CC2)cc(N(C)c2cccc(NC(=O)Nc3ccc(Cl)c(C(F)(F)F)c3)c2)n1` [1-(4-Chloro-3-(trifluoromethyl)phenyl)-3-(3-(methyl (2-methyl-6-(4-methylpiperazin-1-yl)pyrimidin-4-yl)amino)phenyl)urea (Compound 7)], for which the figures for the pIC50 in test [1] and in test [2] were 5.30 and 5.28, respectively.
The corresponding values for `Cc1nc(N2CCOCC2)cc(N(C)c2cccc(NC(=O)Nc3ccc(F)c(Cl)c3)c2)n1` [1-(3-Chloro-4-fluorophenyl)-3-(3-(methyl (2-methyl-6-morpholinopyrimidin-4-yl)amino)phenyl)urea (Compound 5)] are 6.63 and 6.44.
The corresponding values for `Cc1nc(Nc2cccc(NC(=O)Nc3ccc(Cl)c(C(F)(F)F)c3)c2)cc(N2CCOCC2)n1` [1-(4-Chloro-3-(trifluoromethyl)phenyl)-3-(3-(2-methyl-6-morpholinopyrimidin-4-ylamino)phenyl) urea (Compound 3)] are 6.85 and 6.57.
